Read-outs that look alike come from different tables or passages of the source.
Columns and labels:
[1] = tested on: N. fowleri European KUL strain; assay: Naegleria cell-based assay, dose–response (CellTiter-Glo viability, 48 h)
Procedure: The compounds were screened against N. fowleri European KUL strain axenically cultured in Nelson’s medium supplemented with 10% fetal bovine serum at 37 °C.[59] The screening assay in 96- and 384-well formats (Z’-value of 0.95 ± 0.1) was performed as described elsewhere.[9] All the experiments were performed using trophozoites harvested during the logarithmic phase of growth.[60] The primary screen was performed in duplicate at 10 μM in a 384-well format (2,500 amoebae/well). The dose–response curves were generated in triplicate for the follow up compounds by serial dilution of compounds from 50 to 0.39 μM in a 96-well plate with 10,000 amoebae/well. Assay plates were incubated for 48 h at 37 °C, and cell viability was determined by a CellTiter-Glo Luminescent Cell Viability Assay.[9],[58]

NfCYP51 = NfCYP51 (Naegleria fowleri, UniProt A0A2H4A2U9); assay: biochemical; assay type: binding
[2] = tested on: N. fowleri European KUL strain; assay: Primary phenotypic organism-based screen at 10 μM (384-well); assay type: cell-based; details: Naegleria fowleri
in vivo = details: female, C57BL/6, mouse, ip, 40 mg/kg
Procedure: All mice were maintained on a 12 h light/dark cycle in a temperature-controlled environment with access to food and water ad libitum. […] Mice were sacrificed 1 h following the drug administration, and blood and brain samples were collected. Blood (100 μL) was quickly added with 5-fold H2O/CH3CN 8:2, centrifugated to 2500 rpm for 15 min, and plasma was collected. Brain was homogenized in 0.5 mL of distilled water and added with 2 mL of CH3CN. Thus, homogenates were centrifugated to 2500 rpm for 15 min and the supernatants were collected. Plasma and brain supernatants were stored at −20 °C until analysis.
All experiments involving animals were carried out according to Sapienza University’s Ethics Committee, approval code 890/2021-PR, approved on 17 November 2021. Animal care followed the IASP and European Community (EC L358/1, 18/12/86) guidelines on using and protecting animals in experimental research. Eight week-old female C57BL/6 mice were used for the experiments (Charles River, Lecco, Italy).
The targeted analysis was performed by a Waters system composed of a 1525 μ HPLC (Milford, MA, USA), coupled with a Quattro Micro Tandem MS/MS with an ESI source (Micromass, Manchester UK), using a Supelco Ascentis Express C18 (15 cm × 2.1 mm) 2.7 μm analytical column, A (deionized water/formic acid 0.02%) and B (acetonitrile/formic acid 0.02%) as mobile phase, with the following optimized elution binary gradient with linear interpolation: 0–1 min, 30% B; 1–16 min, 45% B; 16–17 min, 45% B; 17–18 min, 30% B; 18–38 min, 30% B to equilibrate the column, flow rate 0.20 mL min^–1. […] Data acquisition, data handling, and instrument control were performed by MassLynx Software 4.1 v (Data Handling System for Windows, Micromass, UK).
Calibration curves were calculated with equal weighted least-squares linear regression analysis of the MRM peak area against the standard nominal concentration. […] The matrix effect (ME) for each compound, in brain (B) and in plasma (P), was evaluated by comparing the matrix-matching calibration curve (2.5, 10, 25, and 50 ng mL^–1) with the corresponding calibration curve.[65]
The biological samples were appropriately diluted with the mobile phase (A:B, 70:30, v:v), filtered at 0.22 μm, and analyzed in triplicate (25 μL injected).

[3] = tested on: N. fowleri European KUL strain; details: amoebicidal effect; cited from earlier work
[4] = Single-dose PK experiment of 2a; details: for concentration at 30 min: intraperitoneal, 20 mg/kg
Naegleria = details: mouse model of PAM, 20 mg/kg dose; cited from earlier work
[5] = cited from earlier work
[6] = concentration for 50% growth inhibition from dose–response curves, triplicate, axenically cultured N. fowleri trophozoites
[7] = 0.5 μM NfCYP51, inhibitor 0.025–0.5 μM, ≤ values estimated from linear dependence of binding, read-out: KD
[8] = 10 µM, supplement CSV, read-out: % Inhibition at 10 µM against N. fowleri KUL strain
[9] = Table S1, mean of two biological duplicates, read-out: % Inhibition at 10 µM
[10] = average brain distribution coefficient (brain/plasma ratio)

NfCYP51, sequence (A0A2H4A2U9 entry or part of it): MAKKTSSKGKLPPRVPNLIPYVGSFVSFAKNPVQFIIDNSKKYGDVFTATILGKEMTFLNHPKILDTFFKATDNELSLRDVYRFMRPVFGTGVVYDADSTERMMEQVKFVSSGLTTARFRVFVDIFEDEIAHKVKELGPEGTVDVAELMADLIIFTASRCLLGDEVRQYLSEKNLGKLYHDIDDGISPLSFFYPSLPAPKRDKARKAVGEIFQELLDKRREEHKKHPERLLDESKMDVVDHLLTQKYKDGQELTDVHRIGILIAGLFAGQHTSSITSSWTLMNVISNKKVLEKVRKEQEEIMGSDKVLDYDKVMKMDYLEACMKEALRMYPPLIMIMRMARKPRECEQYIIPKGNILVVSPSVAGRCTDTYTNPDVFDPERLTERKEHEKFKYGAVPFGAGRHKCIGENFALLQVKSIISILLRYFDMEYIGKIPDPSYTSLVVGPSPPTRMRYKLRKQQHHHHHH

O=C(O[C@@H](Cn1ccnc1)c1ccc(Cl)cc1Cl)c1cccc(C(F)(F)F)c1 [Compound 5a, (R)-1-(2,4-Dichlorophenyl)-2-(1H-imidazol-1-yl)ethyl 3-(Trifluoromethyl)benzoate]
EC50 [1, 6]: 10.2 ± 0.03 µM | Kd (NfCYP51; [7]): 0.161 ± 0.008 µM

Clc1ccc(C(c2ccn(-c3ccc(Cl)cc3)c2)n2ccnc2)cc1 (centres unmarked) [Compound 2g]
inhibition at 10 µM [2, 8]: 47 ± 7.1% | inhibition at 10 µM [2, 9]: 47 ± 7.1%

COc1ccc(CC(c2ccc(OC)cc2)n2ccnc2)cc1 (centres unmarked) [Compound 2e]
inhibition at 10 µM [2, 8]: 49.5 ± 6.4% | inhibition at 10 µM [2, 9]: 49.5 ± 6.4%

FC(F)(F)c1cccc(CO[C@H](Cn2ccnc2)c2ccc(Cl)cc2Cl)c1 [Compound 9b, (S)-1-(2-(2,4-Dichlorophenyl)-2-((3-(trifluoromethyl)benzyl)oxy)ethyl)-1H-imidazole]
average brain distribution coefficient (brain/plasma ratio) (in vivo; 1 h): ~1 | brain/plasma (B/P) (in vivo; 1 h): 1.14 | Kp at 1 h (in vivo; [10]): 1.02 ± 0.12 | Kp at 1 h (in vivo; brain/plasma (B/P)): 0.89 | EC50 [1, 6]: 1.5 ± 0.02 µM | Kd (NfCYP51; [7]): ≤ 0.005 µM

COc1ccc(C(Cc2ccc(Cl)cc2)n2ccnc2)cc1 (centres unmarked) [Compound 2f]
inhibition at 10 µM [2, 8]: 54.5 ± 0.7% | inhibition at 10 µM [2, 9]: 54.5 ± 0.7%

Fc1ccc([C@@H](Cn2ccnc2)OCc2cc(Cl)cc(Cl)c2)cc1 [Compound 8b, (S)-1-(2-((3,5-Dichlorobenzyl)oxy)-2-(4-fluorophenyl)ethyl)-1H-imidazole]
brain/plasma (B/P) (in vivo; 1 h): 0.35 | Kp at 1 h (in vivo; [10]): 0.43 ± 0.08 | Kp at 1 h (in vivo; brain/plasma (B/P)): 0.51 | EC50 [1, 6]: 2.4 ± 0.04 µM | Kd (NfCYP51; [7]): 0.007 ± 0.002 µM

CCC(C)n1ncn(-c2ccc(N3CCN(c4ccc(OCC5COC(Cn6cncn6)(c6ccc(Cl)cc6Cl)O5)cc4)CC3)cc2)c1=O (centres unmarked) [itraconazole]
EC50 [3]: ≤ 0.01 µM

OC(Cn1cncn1)(Cn1cncn1)c1ccc(F)cc1F [Fluconazole, fluconazole, reference compound]
Kd (NfCYP51; [7]): 0.141 ± 0.021 µM

O=C(O)c1cccc(C(F)(F)F)c1 [3-trifluoro benzoic acid]
circulating metabolite of 2a ([4]; after 2a 20 mg/kg intraperitoneally): one of the main circulating metabolites for up to 24 h

O=C(OC(Cn1ccnc1)c1ccccc1)c1cccc(C(F)(F)F)c1 (centres unmarked) [Compound 2c]
inhibition at 10 µM [2, 8]: 53.5 ± 6.4% | inhibition at 10 µM [2, 9]: 53.5 ± 6.4%

COc1ccc([C@@H](Cn2ccnc2)OC(=O)c2cccc(C(F)(F)F)c2)cc1 [Compound 3b, (S)-2-(1H-Imidazol-1-yl)-1-(4-methoxyphenyl)ethyl 3-(Trifluoromethyl)benzoate]
EC50 [1, 6]: 24 ± 0.9 µM | EC50 ([1]; supplement CSV): 24.8 ± 0.9 µM

O=C(O[C@H](Cn1ccnc1)c1ccc(Cl)cc1Cl)c1cccc(C(F)(F)F)c1 [Compound 5b, (S)-1-(2,4-Dichlorophenyl)-2-(1H-imidazol-1-yl)ethyl 3-(Trifluoromethyl)benzoate]
EC50 [1, 6]: 4.3 ± 0.05 µM | Kd (NfCYP51; [7]): 0.07 ± 0.002 µM

O=C(Nc1ccc(N2CCN(c3ccc(Cl)cc3)CC2)cc1)OC(Cn1ccnc1)c1ccc(F)cc1 (centres unmarked) [Compound 2d]
inhibition at 10 µM [2, 8]: 66.5 ± 3.5% | inhibition at 10 µM [2, 9]: 66.5 ± 3.5%

O=C(O[C@@H](Cn1ccnc1)c1ccc(F)cc1)c1cc(Cl)cc(Cl)c1 [Compound 4a, (R)-1-(4-Fluorophenyl)-2-(1H-imidazol-1-yl)ethyl 3,5-Dichlorobenzoate]
EC50 [1, 6]: 21.5 ± 0.04 µM

CC[C@@H]([C@H](C)O)n1ncn(-c2ccc(N3CCN(c4ccc(OC[C@@H]5CO[C@@](Cn6cncn6)(c6ccc(F)cc6F)C5)cc4)CC3)cc2)c1=O [Posaconazole]
mice cured (Naegleria): two of six mice cured | EC50 [3]: ≤ 0.01 µM

Clc1ccc(COC(Cn2ccnc2)c2ccc(Cl)cc2Cl)c(Cl)c1 (centres unmarked) [Compound 1, miconazole]
elimination half-life [5]: 24 h | Kd (NfCYP51): ≤ 0.005 µM

O=C(O[C@H](Cn1cncn1)c1ccc(F)cc1)c1cccc(C(F)(F)F)c1 [Compound 7, (S)-1-(4-Fluorophenyl)-2-(1H-1,2,4-triazol-1-yl)ethyl 3-(Trifluoromethyl)benzoate]
EC50 [1, 6]: 20.6 ± 0.04 µM | Kd (NfCYP51; [7]): 0.087 ± 0.01 µM

O=C(O[C@H](Cn1ccnc1)c1ccc(Cl)cc1Cl)c1ccc(Cl)cc1Cl [Compound 6b, (S)-1-(2,4-Dichlorophenyl)-2-(1H-imidazol-1-yl)ethyl 2,4-Dichlorobenzoate]
EC50 [1, 6]: 2.6 ± 0.03 µM | Kd (NfCYP51; [7]): ≤ 0.005 µM

Clc1cc(Cl)cc(CO[C@H](Cn2ccnc2)c2ccc(Cl)cc2Cl)c1 [Compound 10b, (S)-1-(2-((3,5-Dichlorobenzyl)oxy)-2-(2,4-dichlorophenyl)ethyl)-1H-imidazole]
EC50 [1, 6]: 3.5 ± 0.01 µM | Kd (NfCYP51; [7]): ≤ 0.005 µM

O=C(OC(Cn1ccnc1)c1ccc(F)cc1)c1cccc(C(F)(F)F)c1 (centres unmarked) [Compound 2a]
concentration at 30 min ([4]; brain): 100 ng/g | concentration at 30 min ([4]; plasma): 4 ng/mL | Kd (NfCYP51; [7]): 0.088 ± 0.004 µM | inhibition at 10 µM ([2]; read-out: % inhibition at 10 μM, 10 μM, N. fowleri KUL strain): ~50% | inhibition at 10 µM [2, 8]: 51.5 ± 13.4% | inhibition at 10 µM [2, 9]: 51.5 ± 13.4%

COc1ccc(C(Cc2ccc(-n3cccc3)cc2)n2ccnc2)cc1 (centres unmarked) [Compound 2i]
inhibition at 10 µM [2, 8]: 37.5 ± 30.4% | inhibition at 10 µM [2, 9]: 37.5 ± 30.4%

Clc1ccc(-n2ccc(C(c3ccccc3)n3ccnc3)c2)cc1 (centres unmarked) [Compound 2h]
inhibition at 10 µM [2, 8]: 49 ± 9.9% | inhibition at 10 µM [2, 9]: 49 ± 9.9%

O=C(O[C@H](Cn1ccnc1)c1ccc(F)cc1)c1cc(Cl)cc(Cl)c1 [Compound 4b, (S)-1-(4-Fluorophenyl)-2-(1H-imidazol-1-yl)ethyl 3,5-Dichlorobenzoate]
EC50 [1, 6]: 4.8 ± 0.05 µM

COc1ccc([C@H](Cn2ccnc2)OC(=O)c2cccc(C(F)(F)F)c2)cc1 [Compound 3a, (R)-2-(1H-Imidazol-1-yl)-1-(4-methoxyphenyl)ethyl 3-(Trifluoromethyl)benzoate]
inhibition at 50 µM ([1]; read-out: % inhibition at 50 μM): 69%
